{"source": "patent US20050272784A1", "about": "(priority 2004, published 2005)", "data": [{"system": "SPI1 type III protein secretion system (SopE'-'Bla secretion)", "assay": "Primary assay: Type III protein secretion of the chimeric SopE'-'Bla polypeptide by Salmonella enterica", "type": "cell-based", "settings": "read-out: SopE IC50", "description": "Primary assay: Type III protein secretion of the chimeric SopE′-'Bla polypeptide by Salmonella enterica. This procedure is a cell-based assay that measures the type III-dependent secretion by Salmonella enterica of a plasmid-encoded chimeric polypeptide whose synthesis can be regulated, and which is endowed with an enzymatic activity that can be monitored […] by hydrolysis of a substrate that is unable to penetrate into the bacterial cytoplasm within the time constraints of the reaction. Thus, the colorimetric reaction is not influenced by SopE′-'Bla polypeptide in the bacterial cytoplasm. Instead, it effectively measures the amount of polypeptide that has been secreted from the S. enterica cytoplasm to the extracellular medium via type III system protein secretion.\nThe SopE′-' Bla recombinant polypeptide consists of two functionally distinct domains spliced together. The N-terminus domain is encoded by a polynucleotide region specifying the signal for type III secretion of the SopE polypeptide of S. enterica, an effector of the SPI1 type III protein secretion system. The C-terminus domain of SopE′-'Bla consists of a 263 amino acid peptide sequence that corresponds to the TEM-1 β-lactamase expressed by plasmid pBR322 but without its N-terminal signal sequence. The TEM-1 β-lactamase part of the SopE′-'Bla chimeric polypeptide is used as a reporter enzyme. It is capable of hydrolyzing nitrocefin resulting in a product whose accumulation can be monitored by colorimetric detection. The secretion of the SopE′-'Bla chimeric polypeptide from the cytoplasm to the extracellular medium is dependent on type III protein secretion.\nFor this procedure, cells grown under conditions known to favor a functional SPI1 secretion system are induced for expression of the SopE′-'Bla protein and grown either in the presence or in the absence of putative inhibitors for determined time. Nitrocefin is then added to the various cultures and its hydrolysis are used for quantitation. An inhibitor of Type III protein secretion is generally a compound that reduces the signal of the enzymatic reaction by decreasing the amount of SopE′-'Bla secreted into the extracellular medium.", "units": {"IC50": "µM"}, "values": [{"smiles": "O=C(NC(Cc1ccc(Cl)cc1)C(=O)O)c1cc(-c2ccc(-c3ccccc3)cc2)nn1-c1ccc(Cl)c(Cl)c1", "note": "(stereo not drawn) [Compound 75, 2-{[5-Biphenyl-4-yl-2-(3,4-dichlorophenyl)-2H-pyrazole-3-carbonyl]amino}-3-(4-chlorophenyl)propionic acid]", "IC50": 3}, {"smiles": "O=C(N[C@@H](CSCc1ccccc1)C(=O)O)c1nc(-c2ccc(C(F)(F)F)cc2)oc1-c1cccnc1Cl", "note": "[Compound 25, (R)-3-Benzylsulfanyl-2-{[5-(2-chloropyridin-3-yl)-2-(4-trifluoromethylphenyl)oxazole-4-carbonyl]amino}propionic acid]", "IC50": 62.6}, {"smiles": "O=C(N[C@@H](COCc1ccccc1)C(=O)O)c1nc(-c2ccc(-c3ccccc3)cc2)oc1-c1ccc(Cl)c(Cl)c1", "note": "[Compound 6, (S)-3-Benzyloxy-2-{[2-biphenyl-4-yl-5-(3,4-dichlorophenyl)oxazole-4-carbonyl]amino}propionic acid]", "IC50": 25.6}, {"smiles": "O=C(N[C@@H](COCc1ccccc1)C(=O)O)c1nc(-c2ccc(-c3ccccc3)cc2)oc1-c1cnc(Cl)c(Cl)c1", "note": "[Compound 44, (S)-3-Benzyloxy-2-{[2-biphenyl-4-yl-5-(5,6-dichloropyridin-3-yl)oxazole-4-carbonyl]amino}propionic acid]", "IC50": 3.3}, {"smiles": "O=C(NC(Cc1ccc(Cl)cc1)C(=O)O)c1cc(-c2ccc(-c3ccccc3)cc2)nn1-c1cccc(C(F)(F)F)c1", "note": "(stereo not drawn) [Compound 74, 2-{[5-Biphenyl-4-yl-2-(3-trifluoromethylphenyl)-2H-pyrazole-3-carbonyl]amino}-3-(4-chlorophenyl)propionic acid]", "IC50": 1.5}, {"smiles": "O=C(NC(CSCc1ccccc1)C(=O)O)c1nc(-c2ccc(Oc3ccccc3)cc2)oc1-c1ccc(Cl)nc1Cl", "note": "(stereo not drawn) [Compound 36, 3-Benzylsulfanyl-2-{[5-(2,6-dichloropyridin-3-yl)-2-(4-phenoxyphenyl)oxazole-4-carbonyl]amino}propionic acid]", "IC50": 3.3}, {"smiles": "CC(=O)N1CCN(c2ncccc2-c2oc(-c3ccc(C(F)(F)F)cc3)nc2C(=O)NC(Cc2ccc(Cl)cc2)C(=O)O)CC1", "note": "(stereo not drawn) [Compound 32, 2-{[5-[2-(4-Acetylpiperazin-1-yl)pyridin-3-yl]-2-(4-trifluoromethylphenyl)oxazole-4-carbonyl]amino}-3-(4-chlorophenyl)propionic acid]", "IC50": 77.3}, {"smiles": "O=C(N[C@@H](CS(=O)(=O)Cc1ccccc1)C(=O)O)c1nc(-c2ccc(C(F)(F)F)cc2)oc1-c1cccnc1N1CCCCC1", "note": "[Compound 31, (R)-3-Phenylmethanesulfonyl-2-{[5-(3,4,5,6-tetrahydro-2H-[1,2′]bipyridin-3′-yl)-2-(4-trifluoromethylphenyl)oxazole-4-carbonyl]amino}propionic acid]", "IC50": 71.5}, {"smiles": "O=C(N[C@@H](C[S+]([O-])Cc1ccccc1)C(=O)O)c1nc(-c2ccc(C(F)(F)F)cc2)oc1-c1cccnc1N1CCCCC1", "note": "(stereo partly drawn) [Compound 30, (R)-3-Phenylmethanesulfinyl-2-{[5-(3,4,5,6-tetrahydro-2H-[1,2′]bipyridin-3′-yl)-2-(4-trifluoromethylphenyl)oxazole-4-carbonyl]amino}propionic acid]", "IC50": 29.2}, {"smiles": "O=C(NC(Cc1ccc(Cl)cc1)C(=O)O)c1nc(-c2cccc3ccccc23)oc1-c1ccc(C(F)(F)F)nc1", "note": "(stereo not drawn) [Compound 58, 3-(4-Chlorophenyl)-2-{[2-naphthalen-1-yl-5-(6-trifluoromethylpyridin-3-yl)oxazole-4-carbonyl]amino}propionic acid]", "IC50": 4.2}, {"smiles": "N=C(NO)c1ccc(-c2oc(-c3ccc(C(F)(F)F)cc3)nc2C(=O)N[C@@H](CSCc2ccccc2)C(=O)O)cc1", "note": "[Compound 49, (R)-3-Benzylsulfanyl-2-{[5-[4-(N-hydroxycarbamimidoyl)phenyl]-2-(4-trifluoromethylphenyl)oxazole-4-carbonyl]amino}propionic acid]", "IC50": 34.7}, {"smiles": "O=C(N[C@@H](CSCc1ccccc1)C(=O)O)c1nc(-c2ccc(C(F)(F)F)cc2)oc1-c1cnc2ccccc2n1", "note": "[Compound 11, (R)-3-Benzylsulfanyl-2-{[5-quinoxalin-2-yl-2-(4-trifluoromethylphenyl)oxazole-4-carbonyl]amino}propionic acid]", "IC50": 42.2}, {"smiles": "O=C(NC(Cc1ccc(Cl)cc1)C(=O)O)c1nc(-c2ccc(Oc3ccccc3)cc2)oc1-c1ccc(Cl)nc1Cl", "note": "(stereo not drawn) [Compound 38, 3-(4-Chlorophenyl)-2-{[5-(2,6-dichloropyridin-3-yl)-2-(4-phenoxyphenyl)oxazole-4-carbonyl]amino}propionic acid]", "IC50": 2.4}, {"smiles": "O=C(N[C@@H](CSCc1ccccc1)C(=O)O)c1nc(-c2ccc(C(F)(F)F)cc2)sc1-c1ccc(-c2ccccc2)cc1", "note": "[Compound 2, (R)-3-Benzylsulfanyl-2-{[5-biphenyl-4-yl-2-(4-trifluoromethylphenyl)thiazole-4-carbonyl]amino}propionic acid]", "IC50": 16.5}, {"smiles": "O=C(N[C@@H](CSCc1ccccc1)C(=O)O)c1nc(-c2ccc(C(F)(F)F)cc2)oc1-c1ccc(-c2noc(C(F)(F)F)n2)cc1", "note": "[Compound 50, (R)-3-Benzylsulfanyl-2-{[5-[4-(5-trifluoromethyl[1,2,4]oxadiazol-3-yl)phenyl]-2-(4-trifluoromethylphenyl)oxazole-4-carbonyl]amino}propionic acid]", "IC50": 64.3}, {"smiles": "Cn1cc(-c2oc(-c3ccc(C(F)(F)F)cc3)nc2C(=O)N[C@@H](COCc2ccccc2)C(=O)O)c2ccccc21", "note": "[Compound 47, (S)-3-Benzyloxy-2-{[5-(1-methyl-1H-indol-3-yl)-2-(4-trifluoromethylphenyl)oxazole-4-carbonyl]amino}propionic acid]", "IC50": 54}, {"smiles": "O=C(NC(Cc1ccc(Cl)cc1)C(=O)O)c1nc(-c2ccc(C(F)(F)F)cc2)oc1-c1cnc2ccccc2n1", "note": "(stereo not drawn) [Compound 54, 3-(4-Chlorophenyl)-2-{[5-quinoxalin-2-yl-2-(4-trifluoromethylphenyl)oxazole-4-carbonyl]amino}propionic acid]", "IC50": 49.4}, {"smiles": "Cn1cc(-c2oc(-c3ccc(C(F)(F)F)cc3)nc2C(=O)N[C@@H](CSCc2ccccc2)C(=O)O)c2ccccc21", "note": "[Compound 46, (R)-3-Benzylsulfanyl-2-{[5-(1-methyl-1H-indol-3-yl)-2-(4-trifluoromethylphenyl)oxazole-4-carbonyl]amino}propionic acid]", "IC50": 47.3}, {"smiles": "O=C(NC(Cc1ccc(Cl)cc1)C(=O)O)c1cc(-c2ccc(-c3ccccc3)cc2)nn1-c1ccc(C(F)(F)F)cc1", "note": "(stereo not drawn) [Compound 76, 2-{[5-Biphenyl-4-yl-2-(4-trifluoromethylphenyl)-2H-pyrazole-3-carbonyl]amino}-3-(4-chlorophenyl)propionic acid]", "IC50": 19.6}, {"smiles": "O=C(N[C@@H](CSCc1ccccc1)C(=O)O)c1nc(-c2ccc(Oc3ccccc3)cc2)oc1-c1cnc(Cl)c(Cl)c1", "note": "[Compound 39, (R)-3-Benzylsulfanyl-2-{[5-(5,6-dichloropyridin-3-yl)-2-(4-phenoxyphenyl)oxazole-4-carbonyl]amino}propionic acid]", "IC50": 9.1}, {"smiles": "O=C(N[C@@H](CSCc1ccccc1)C(=O)O)c1nc(-c2ccc(C(F)(F)F)cc2)oc1-c1ccc(-c2nccs2)cc1", "note": "[Compound 21, (R)-3-Benzylsulfanyl-2-{[5-(4-thiazol-2-yl-phenyl)-2-(4-trifluoromethylphenyl)oxazole-4-carbonyl]amino}propionic acid]", "IC50": 3.1}]}]}
